The target of the experiment is T1, USP19 (Homo sapiens, UniProt O94966).
T1 sequence (O94966 1-1318): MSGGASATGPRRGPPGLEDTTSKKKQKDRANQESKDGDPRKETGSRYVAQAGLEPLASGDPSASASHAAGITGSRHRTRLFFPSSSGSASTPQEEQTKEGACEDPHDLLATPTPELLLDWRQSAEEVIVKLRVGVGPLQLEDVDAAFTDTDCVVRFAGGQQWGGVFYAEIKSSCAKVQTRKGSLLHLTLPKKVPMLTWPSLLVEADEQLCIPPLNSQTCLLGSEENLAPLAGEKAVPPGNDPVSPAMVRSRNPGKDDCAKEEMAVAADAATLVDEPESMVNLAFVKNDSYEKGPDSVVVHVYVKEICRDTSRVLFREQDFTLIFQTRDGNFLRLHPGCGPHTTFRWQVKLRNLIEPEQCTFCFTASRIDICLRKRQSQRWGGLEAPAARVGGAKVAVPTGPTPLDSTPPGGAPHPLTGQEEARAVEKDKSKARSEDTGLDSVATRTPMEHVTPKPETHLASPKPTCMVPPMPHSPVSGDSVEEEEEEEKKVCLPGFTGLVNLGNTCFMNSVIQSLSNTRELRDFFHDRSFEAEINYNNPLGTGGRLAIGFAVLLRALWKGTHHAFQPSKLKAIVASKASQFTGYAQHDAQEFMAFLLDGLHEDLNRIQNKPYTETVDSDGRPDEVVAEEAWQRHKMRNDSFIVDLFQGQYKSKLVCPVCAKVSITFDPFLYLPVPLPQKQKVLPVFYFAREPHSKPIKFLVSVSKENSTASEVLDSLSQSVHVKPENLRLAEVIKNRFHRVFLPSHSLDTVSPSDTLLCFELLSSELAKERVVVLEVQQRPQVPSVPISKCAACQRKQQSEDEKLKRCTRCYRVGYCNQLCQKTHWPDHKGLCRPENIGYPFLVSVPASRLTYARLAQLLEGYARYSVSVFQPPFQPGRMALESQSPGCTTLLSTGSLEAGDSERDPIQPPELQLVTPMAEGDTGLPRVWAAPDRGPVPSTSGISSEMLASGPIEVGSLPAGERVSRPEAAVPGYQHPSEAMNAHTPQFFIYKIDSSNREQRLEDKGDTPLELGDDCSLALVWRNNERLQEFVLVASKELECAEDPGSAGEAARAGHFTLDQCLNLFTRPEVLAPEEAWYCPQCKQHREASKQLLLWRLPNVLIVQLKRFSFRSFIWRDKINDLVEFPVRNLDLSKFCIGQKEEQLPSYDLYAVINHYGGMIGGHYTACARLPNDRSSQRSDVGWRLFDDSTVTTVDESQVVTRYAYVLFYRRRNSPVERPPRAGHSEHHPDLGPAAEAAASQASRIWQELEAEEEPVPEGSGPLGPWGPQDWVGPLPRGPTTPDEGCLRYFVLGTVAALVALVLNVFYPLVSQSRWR
As to the kind of experiment: USP19 fluorescence polarisation (FP) homogeneous assay. The format is biochemical. The arrangement: Full-length USP19 was purchased from Boston Biochem (E-576); purchased Boston Biochem E-576. The conditions noted are these: Ubiquitin-Lys-TAMRA substrate, full-length USP19 2.5 nM, average of at least two duplicate experiments. Here is the method:
Unless otherwise stated, all other reagents were purchased from Sigma. Enzymatic reactions were conducted in black flat bottom polystyrene 384-well plates (Nunc) and 30 μL total volume. […] Inhibitors were stored as 10 mM DMSO stocks in an inert environment (low humidity, dark, low oxygen, room temperature) using the Storage Pod System and serial dilutions were prepared in buffer just prior to the assay (from 200 μM to 2 μM, 8-18 data point curve). Following incubation at RT for 30 min, the enzymatic reactions were initiated by dispensing the Ub substrate (500 nM, 10 μL). FP was measured every 15 min over a period of 90 min (within the linear range of the assay) using a Synergy 4 plate reader (BioTek) exciting at 530 nm and measuring the amount of parallel and perpendicular light at 575 nm. The FP signal was subsequently normalised to the no compound control.
In general terms: Fluorescence polarisation rises when a labelled molecule tumbles more slowly, as on binding a larger partner.

The structures appear in SMILES notation.

The IC50 is the concentration needed to halve the response being measured. As to `C[C@H](CC1CCCCC1)C(=O)N1CCC(O)(Cn2cnc(-c3cccc(CO)c3)cc2=O)C(C)(C)C1` (some centres unmarked) [Example 138], the IC50 was less than 500 nM. On to `C[C@H](CC1CCCCC1)C(=O)N1CCC(O)(Cn2cnc(-c3ccc(CO)cc3)cc2=O)C(C)(C)C1` (stereo partly drawn) [Example 139, 3-((1-((R)-3-Cyclohexyl-2-methylpropanoyl)-4-hydroxy-3,3-dimethylpiperidin-4-yl)methyl)-6-(4-(hydroxymethyl)phenyl)pyrimidin-4(3H)-one], for which the IC50 was less than 500 nM. Consider `C[C@H](CC1CCCCC1)C(=O)N1CCC(O)(Cn2cnc(-c3ccccc3CN)cc2=O)C(C)(C)C1` (some centres unmarked) [Example 141], for which the IC50 was less than 500 nM. For `C[C@H](CC1CCCCC1)C(=O)N1CCC(O)(Cn2cc(C(=O)N(C)C)c(Cl)cc2=O)C2(CCCC2)C1` (stereo partly drawn) [Example 144, 4-Chloro-1-((7-((R)-3-cyclohexyl-2-methylpropanoyl)-10-hydroxy-7-azaspiro[4.5]decan-10-yl)methyl)-N,N-dimethyl-6-oxo-1,6-dihydropyridine-3-carboxamide], the IC50 is less than 500 nM.

For `C[C@H](CC1CCCCC1)C(=O)N1CCC(O)(Cn2cc(C(=O)N(C)C)c(N(C)C)cc2=O)C2(CCCC2)C1` (stereo partly drawn) [Example 145, 1-((7-((R)-3-Cyclohexyl-2-methylpropanoyl)-10-hydroxy-7-azaspiro[4.5]decan-10-yl)methyl)-4-(dimethylamino)-N,N-dimethyl-6-oxo-1,6-dihydropyridine-3-carboxamide], the IC50 is less than 500 nM. In the case of `C[C@H](CC1CC1)C(=O)N1CCC(O)(Cn2cc(C(=O)N(C)C)c(-c3ccccc3)cc2=O)C2(CCCC2)C1` (stereo partly drawn) [Example 149, 1-((7-((R)-3-Cyclopropyl-2-methylpropanoyl)-10-hydroxy-7-azaspiro[4.5]decan-10-yl)methyl)-N,N-dimethyl-6-oxo-4-phenyl-1,6-dihydropyridine-3-carboxamide] it was less than 500 nM.

Consider `CN(C)C(=O)c1cn(C[C@]2(O)CCN(C(=O)[C@H](CO)CC3CCCCC3)CC2(C)C)c(=O)cc1-c1ccccc1` [Example 152, 1-(((S)-1-((S)-3-Cyclohexyl-2-(hydroxymethyl)propanoyl)-4-hydroxy-3,3-dimethylpiperidin-4-yl)methyl)-N,N-dimethyl-6-oxo-4-phenyl-1,6-dihydropyridine-3-carboxamide], for which the IC50 is less than 500 nM. In the case of `CN(C)C(=O)c1cn(C[C@@]2(O)CCN(C(=O)[C@H](CO)CC3CCCCC3)CC2(C)C)c(=O)cc1-c1ccccc1` [Example 153, 1-(((R)-1-((S)-3-Cyclohexyl-2-(hydroxymethyl)propanoyl)-4-hydroxy-3,3-dimethylpiperidin-4-yl)methyl)-N,N-dimethyl-6-oxo-4-phenyl-1,6-dihydropyridine-3-carboxamide], the 50% inhibitory concentration (IC50) lay in the range of 5000 to 50000 nM. Consider `C[C@H](CC1CCCCC1)C(=O)N1CCC(O)(Cn2cc(C(=O)N(C)C)c(-c3ccsc3)cc2=O)C2(CCCC2)C1` (stereo partly drawn) [Example 155, 1-((7-((R)-3-Cyclohexyl-2-methylpropanoyl)-10-hydroxy-7-azaspiro[4.5]decan-10-yl)methyl)-N,N-dimethyl-6-oxo-4-(thiophen-3-yl)-1,6-dihydropyridine-3-carboxamide], for which the IC50 is less than 500 nM. Consider `C[C@H](CC1CCCCC1)C(=O)N1CCC(O)(Cn2cc(C(=O)N(C)C)c(-c3cccc(CO)c3)cc2=O)C2(CCCC2)C1` (stereo partly drawn) [Example 156, 1-((7-((R)-3-Cyclohexyl-2-methylpropanoyl)-10-hydroxy-7-azaspiro[4.5]decan-10-yl)methyl)-4-(3-(hydroxymethyl)phenyl)-N,N-dimethyl-6-oxo-1,6-dihydropyridine-3-carboxamide], for which the IC50 is less than 500 nM. In the case of `CN(C)C(=O)c1cn(CC2(O)CCN(C(=O)C(O)CC3CCCCC3)CC23CCCC3)c(=O)cc1-c1ccccc1` (centres unmarked) [Example 157, 1-((7-(3-Cyclohexyl-2-hydroxypropanoyl)-10-hydroxy-7-azaspiro[4.5]decan-10-yl)methyl)-N,N-dimethyl-6-oxo-4-phenyl-1,6-dihydropyridine-3-carboxamide], the IC50 is less than 500 nM.

Consider `COC[C@H](CC1CCCCC1)C(=O)N1CC[C@@](O)(Cn2cc(C(=O)N(C)C)c(-c3ccccc3)cc2=O)C(C)(C)C1` [Example 160, 1-(((S)-1-((S)-3-Cyclohexyl-2-(methoxymethyl)propanoyl)-4-hydroxy-3,3-dimethylpiperidin-4-yl)methyl)-N,N-dimethyl-6-oxo-4-phenyl-1,6-dihydropyridine-3-carboxamide], for which the IC50 was less than 500 nM. With `C[C@H](CC1CCCCC1)C(=O)N1CCC(O)(Cn2cc(C(=O)N(C)C)c(-c3ccc(CO)cc3)cc2=O)C2(CCCC2)C1` (stereo partly drawn) [Example 162, 1-((7-((R)-3-Cyclohexyl-2-methylpropanoyl)-10-hydroxy-7-azaspiro[4.5]decan-10-yl)methyl)-4-(4-(hydroxymethyl)phenyl)-N,N-dimethyl-6-oxo-1,6-dihydropyridine-3-carboxamide], the 50% inhibitory concentration (IC50) was less than 500 nM.

With `CN(C)C(=O)c1cn(C[C@]2(O)CCN(C(=O)[C@H](CCO)CC3CCCCC3)CC2(C)C)c(=O)cc1-c1ccccc1` [Example 164, 1-(((S)-1-((S)-2-(Cyclohexylmethyl)-4-hydroxybutanoyl)-4-hydroxy-3,3-dimethylpiperidin-4-yl)methyl)-N,N-dimethyl-6-oxo-4-phenyl-1,6-dihydropyridine-3-carboxamide], the IC50 is less than 500 nM. For the compound `CN(C)C(=O)c1cn(C[C@]2(O)CCN(C(=O)[C@H](CO)CC3CCC3)CC2(C)C)c(=O)cc1-c1ccccc1` [Example 166, 1-(((S)-1-((S)-3-Cyclobutyl-2-(hydroxymethyl)propanoyl)-4-hydroxy-3,3-dimethylpiperidin-4-yl)methyl)-N,N-dimethyl-6-oxo-4-phenyl-1,6-dihydropyridine-3-carboxamide], the IC50 is less than 500 nM.

Consider `CN(C)C(=O)c1cn(C[C@@]2(O)CCN(C(=O)[C@H](CO)CC3CCC3)CC2(C)C)c(=O)cc1-c1ccccc1` [Example 167, 1-(((R)-1-((S)-3-Cyclobutyl-2-(hydroxymethyl)propanoyl)-4-hydroxy-3,3-dimethylpiperidin-4-yl)methyl)-N,N-dimethyl-6-oxo-4-phenyl-1,6-dihydropyridine-3-carboxamide], for which the IC50 is 5000 to 50000 nM.

As for `C[C@H](CC1CCCCC1)C(=O)N1CCC(O)(Cn2cc(C(=O)N3CCOCC3)c(-c3ccccc3)cc2=O)C(C)(C)C1` (some centres unmarked) [Example 168], the IC50 was less than 500 nM. `CC(=O)N1CCN(C(=O)c2cn(CC3(O)CCN(C(=O)[C@H](C)CC4CCCCC4)CC3(C)C)c(=O)cc2-c2ccccc2)CC1` (some centres unmarked) [Example 169]: the half-inhibitory concentration (IC50) is less than 500 nM. For `C[C@H](CC1CCCCC1)C(=O)N1CCC(O)(Cn2cc(C(=O)N3CCN(C)CC3)c(-c3ccccc3)cc2=O)C(C)(C)C1` (stereo partly drawn) [Example 170, 1-((1-((R)-3-Cyclohexyl-2-methylpropanoyl)-4-hydroxy-3,3-dimethylpiperidin-4-yl)methyl)-5-(4-methylpiperazine-1-carbonyl)-4-phenylpyridin-2(1H)-one], the IC50 is less than 500 nM. With `CN(C)C(=O)c1cn(CC2(O)CCN(C(=O)[C@@H]3C[C@@H]3c3ccccc3)CC23CCCC3)c(=O)cc1-c1ccccc1` (stereo partly drawn) [Example 174, 1-((10-Hydroxy-7-((1R,2S)-2-phenylcyclopropane-1-carbonyl)-7-azaspiro[4.5]decan-10-yl)methyl)-N,N-dimethyl-6-oxo-4-phenyl-1,6-dihydropyridine-3-carboxamide], the IC50 was less than 500 nM.
